These results are taken from patent US20090220534A1, “METHODS FOR IDENTIFYING T-CELL EPITOPES ASSOCIATED WITH IMPAIRED PEPTIDE PROCESSING AND APPLICATIONS OF THE IDENTIFIED EPITOPES” (Leiden University Medical Center, priority 2006, published 2009).

Data set [1] concerns MC38 colon carcinoma cells and B16 melanoma cells. The data set can be described thus: TAP1 antisense oligonucleotide treatment of tumor cells, recognition by TEIPP-specific CTL (IFNγ release). Type of data set: cell-based, mouse. The protocol:
(§1) (a) TEIPP-specific CTL were incubated with a panel of TAP-expressing syngeneic tumor cells (see Materials and Methods for descriptions of tumor cell lines). CTL response against TAP-deficient RMA-S in this experiment was 44 ng/ml. (b) Pre-treatment of TAP-expressing T-cell lymphoma (RMA) and B-cell lymphoma (786) cells with IFNγ reduced the reactivity of TEIPP-specific CTL, as measured after 6 h. […] Panels depict means of triplicate wells and one of three experiments is shown. (c-e) TAP-expressing RMA tumor cells were treated with the proteasome inhibitor lactacystin and used as targets for cytolysis by two independent TEIPP-specific CTL (c and d) or control RMA-specific CTL (e). […] One representative experiment of three is shown. […] (f-g) TAP-expressing colon carcinoma MC38 (f) and melanoma B16 (g) were loaded with oligo DNA coding a partial antisense sequence of TAP1. Recognition by TEIPP-specific CTL was measured by IFNγ release. […]
(§2) In order to make an inventory of the deficiencies that can result in TEIPP expression, we assessed the effect of several targeted interventions in the MHC class I processing pathway. […]
(§3) Cytolytic activity of CTL was measured by chromium (^51Cr) release assay, as described before (16). CTL reactivity was also measured by IFNγ release. […] IFNγ content of supernatants was measured by sandwich ELISA technique (at OD 415) as described (47). […]

Data set [2] concerns TAP-expressing RMA tumor cells. The data set can be described thus: Proteasome inhibitor treatment of target cells, cytolysis by CTL (chromium release). The format is cell-based, mouse. Conditions: RMA cells treated with proteasome inhibitor. The protocol:
as §1, §2, §3

The test system of data set [3] is RMA, 786 and RMA-S tumor cells. In words: IFNγ pre-treatment of tumor cells, recognition by CTL. The format is cell-based, mouse. The protocol: (a) TEIPP-specific CTL were incubated with a panel of TAP-expressing syngeneic tumor cells (see Materials and Methods for descriptions of tumor cell lines). CTL response against TAP-deficient RMA-S in this experiment was 44 ng/ml. (b) Pre-treatment of TAP-expressing T-cell lymphoma (RMA) and B-cell lymphoma (786) cells with IFNγ reduced the reactivity of TEIPP-specific CTL, as measured after 6 h. […] Panels depict means of triplicate wells and one of three experiments is shown. (c-e) TAP-expressing RMA tumor cells were treated with the proteasome inhibitor lactacystin and used as targets for cytolysis by two independent TEIPP-specific CTL (c and d) or control RMA-specific CTL (e). […] One representative experiment of three is shown. […] (f-g) TAP-expressing colon carcinoma MC38 (f) and melanoma B16 (g) were loaded with oligo DNA coding a partial antisense sequence of TAP1. Recognition by TEIPP-specific CTL was measured by IFNγ release. […] (h) Tapasin−/− LPS B cell blasts are recognized by TEIPP-specific CTL in a CD8-dependent manner. Spleens of TAP1−/−, Tapasin−/− or wild type B6 mice were cultured with LPS and used as targets for TEIPP-specific CTL.
Thus far, only cells of hematopoietic origin had been tested against TEIPP-specific CTL. […] Likewise, TEIPP-specific CTL recognized immortalized mouse embryo fibroblasts from TAP1−/− origin (FIG. 2c). […] For instance, RMA, the TAP-expressing counterpart of RMA-S against which these T cells were raised, was also recognized by TEIPP-directed CTL, albeit to lower extent (FIG. 3a). Furthermore, the TEIPP-specific CTL recognized two independent TAP-expressing murine leukemia virus-induced B cell lymphomas (FIG. 3a, lines 771 and 786) and, of the tumor targets of non-hematopoietic origin, HPV type 16-transformed fibroblasts (FIG. 3a, line TC1). All these tumor cells expressed TAP, as illustrated by the fact that they serve as proper targets for control CTL that react against defined, TAP-dependent epitopes 15, 16. We therefore considered the possibility that partial deficiencies in MHC class I antigen processing may account for the recognition of several TAP-expressing murine tumor cells by TEIPP-specific CTL. Such partial defects are commonly found in human cancers 5. We examined this idea by treatment of RMA cells with IFNγ, which is known to enhance MHC class I antigen processing at multiple levels, including the transcription of TAP 17. […] In contrast, recognition by RMA-specific control CTL was increased (data not shown).
as §3

Data set [4] has as its system TAP-deficient RMA-S lymphoma cells. The data set can be described thus: Peptide immunization and challenge with RMA-S tumor cells. Type of data set: in vivo. Conditions: with T helper peptide and CpG oligonucleotides, B6 mice. The source says:
Groups of B6 mice (n=10) were immunized with synthetic peptides comprising TEIPP Db peptide MCLRMTAVM or control Db peptide SSPVNSLRNVV51 combined with T helper peptide EPLTSLTPRCNTAWNRLKL29 and CpG oligonucleotides 28 and challenged with TAP-deficient RMA-S lymphoma cells. Mice were challenged at day 0 and immunized at days −14, 7 and 14. Immunization with irradiated RMA-S.B7 cells served as positive control.
We therefore immunized groups of mice with the newly identified Db-restricted TEIPP CTL epitope, or a control CTL epitope, in combination with a previously identified tumor-specific CD4+ T-helper epitope (29), and challenged the mice with a tumorigenic dose of RMA-S cells.
B6 mice were immunized with synthetic peptides by s.c. injections of 100 μg of peptide, 50 μg T-helper peptide EPLTSLTPRCNTAWNRLKL 29 and 40 μg Toll-Like Receptor 9 ligand CpG oligonucleotides 28 per mouse in a total volume of 200 μl PBS. Mice were challenged s.c. at the opposite flank with 8×10^5 RMA-S cells in PBS.

A further data set deals with Db-restricted TEIPP CTL. The data set can be described thus: Peptide recognition by Db-restricted TEIPP CTL (IFNγ release). Conditions: synthetic peptide in titrating amounts. Type of data set: cell-based, mouse.
Text: Kb-restricted (a) and Db-restricted TEIPP-CTL (b) respond to human TAP-deficient T2 cells with stable expression of Kb or Db when exogenously loaded with synthetic peptide libraries. Libraries contained peptides with Kb- or Db-binding motifs, Kb lib: xxxxFxxI/L/M (complexity of approximately 108) and Db lib: xxxxNxxxI/L/M (complexity of approximately 109), where x is random for all amino acids. (c-d) Db molecules from RMA-S cells (1011) were immunoaffinity purified and acid eluted peptides were separated by reversed phase HPLC, applying an increasing acetonitril gradient (OD214 left axis, % acetonitril right axis) (c). HPLC fractions were loaded unto T2.Db cells and TEIPP-specific, Db-restricted CTL were applied to detect the eluted peptide-epitope (d). […] Of note, CTL recognition of HPLC fractions depended on the presence of the relevant class I molecule on target cells (not shown). (e) MCLRMTAVM peptide is processed and presented from the Trh4 gene. The Trh4 gene was cloned from RMA-S cells using gene-specific primers. Trh4 gene in the reversed orientation (Trh4r) served as control plasmid. […]
as §3

For “TAP1-specific anti-sense oligonucleotides: 'morpholino' oligonucleotides encoding the antisense sequence of mouse TAP1 (5′-AGAGTCTGGTCCTAGCCTGGGA-3′) (all phosphorodiamidate morpholino (PMO))”, the “recognition of treated cells by TEIPP-specific CTL” value in data set [1] is listed as “increased recognition by TEIPP-specific CTL”.
With `CC(=O)N[C@@H](CSC(=O)[C@]1([C@@H](O)C(C)C)NC(=O)[C@H](C)[C@@H]1O)C(=O)O` [lactacystin], in data set [2], the “recognition of treated RMA cells by control CTL” value is given as “decreased” and the “sensitivity of treated RMA cells to lysis by TEIPP-specific CTL” value was “increased their sensitivity to lysis by these CTL”.
“IFNγ: interferon gamma used to pre-treat tumor cells”: in data set [3] (RMA cells), the “recognition of pretreated cells by TEIPP-specific CTL” value is reported as “reduced recognition of these cells by TEIPP-specific CTL”. In data set [3] (RMA cells, data not shown), the “recognition of pretreated cells by RMA-specific control CTL” value is given as “increased”. Further, in data set [3] (RMA cells, not shown), the “MHC class I surface expression” value is given as “increased three-fold”. Also, the “recognition of pretreated cells by CTL” value in data set [3] (RMA-S cells, data not shown) is listed as “did not result in an increased recognition”.
As for “control peptide: control Db peptide SSPVNSLRNVV used for immunization”, the “tumor protection after immunization” value in data set [4] is listed as “developed progressively growing tumors”.
On to MCLRMTAVM, for which the “tumor protection after immunization” value in data set [4] is “tumor protection in the majority of mice”. In addition, the “recognition by Db-restricted TEIPP CTL” value in the data set with Db-restricted TEIPP CTL was “efficiently recognized by the Db-restricted TEIPP CTL, at much lower concentration than the mimotope peptide”.
